Data reported in patent US6727250B2, “Carboxylic acid amides, pharmaceutical compositions containing these compounds, their use and preparation” (Boehringer Ingelheim Pharma KG, priority 1999, dated 2004).
pIC50: −log10 of the molar value.

Target: T1, telomerase in nuclear extracts from HeLa cells (Homo sapiens, UniProt O14746)
T1 construct: The activity of telomerase in nuclear extracts from HeLa cells; endogenous in cells; host or cells: HeLa-S3 nuclear extract (ATCC CCL-2.2), prepared according to Dignam
Assay: Telomerase test: activity of telomerase in nuclear extracts from HeLa cells (method of Morin)
Type: biochemical
Conditions: concentration of inhibitor which inhibits the telomerase activity by 50%; HeLa nuclear extract, 120 minutes at 30° C., Phospho-Imager quantification
Method: The inhibiting effect of the carboxylic acid amides of general formula I on telomerase was investigated as follows: […]
1. Preparation of Nuclear Extracts from HeLa Cells:
Nuclear extracts were prepared according to Dignam (Dignam et al. in Nucleic Acids Res. 11, 1475-1489 (1983)). All the steps were carried out at 4° C., all the equipment and solutions were pre-cooled to 4° C. At least 1×10^9 HeLa-S3 cells growing in suspension culture (ATCC catalogue number CCL-2.2) were harvested by centrifuging for 5 minutes at 1000× g and washed once with PBS buffer ([…]; 2.7 mM KCl; 8.1 mM Na2HPO4; 1.5 mM KH2PO4). After the cell volume had been determined, the cells were suspended in 5 times the volume of hypotonic buffer (10 mM HEPES/KOH, pH 7.8; 10 mM KCl; 1.5 mM MgCl2) and then left for 10 minutes at 4° C. After centrifuging for 5 minutes at 1000× g the cell pellet was suspended in twice the volume of hypotonic buffer in the presence of 1 mM DTE and 1 mM PMSF and broken up with a Dounce homogeniser. The homogenised material was made isotonic with 0.1 volume of 10-fold saline buffer (300 mM HEPES/KOH, pH 7.8; 1.4 M KCl; 30 mM MgCl2). The cell nuclei were separated from the ingredients of the cytoplasm by centrifuging and then suspended in twice the volume of nuclear extraction buffer (20 mM HEPES/KOH, pH 7.9; 420 mM KCl; 1.5 mM MgCl2; 0.2 mM EDTA; 0.5 mM DTE; 25% glycerol). The nuclei were broken up using a Dounce homogeniser and incubated for 30 minutes at 4° C. with gentle stirring. Any insoluble ingredients were removed by centrifuging for 30 minutes at 10.000 rpm (SS-34 Rotor). Then the nuclear extract was dialysed for 4-5 hours against AM-100 buffer (20 mM tris/HCl, pH 7.9; 100 mM KCl; 0.1 mM EDTA; 0.5 mM DTE; 20% glycerol). The nuclear extracts obtained were frozen in liquid nitrogen and stored at −80° C.
The activity of telomerase in nuclear extracts from HeLa cells was determined using the method described by Morin (Morin in Cell 59, 521-529 (1989)). […] If the inhibition constant of potential telomerase inhibitors was to be determined, these were also added to the telomerase reaction in a concentration range of from 1 nM to 100 μM.
The reaction was then stopped by the addition of 50 μl of RNase stop buffer (10 mM tris/HCL, pH 8.0; 20 mM EDTA; 0.1 mg/ml of RNase A 100 U/ml of RNase T1; 1000 cpm of an α-^32P-dGTP labelled, 430 bp DNA fragment) and incubation was continued for a further 15 minutes at 37° C. Proteins present in the reaction mixture were cleaved by the addition of 50 μl of proteinase K buffer (10 mM tris/HCL, pH 8.0; 0.5% SDS; 0.3 mg/ml of proteinase K) and subsequent incubation for 15 min at 37° C. The DNA was purified by extracting twice with phenol-chloroform and precipitated by adding 2.4 M ammonium acetate; 3 μg tRNA and 750 μl ethanol. Then the precipitated DNA was washed with 500 μl of 70% ethanol, dried at ambient temperature, taken up in 4 μl of formamide probe buffer (80% (V/V) formamide; 50 mM of tris-borate, pH 8.3; 1 mM EDTA; 0.1 (w/v) of xylene cyanol; 0.1% (w/v) bromophenol blue) and separated by electrophoresis on a sequence gel (8% polyacrylamide, 7 M urea, 1× TBE buffer). The DNA synthesised by telomerase in the presence or absence of potential inhibitors was identified and quantified by Phospho-Imager Analysis (Molecular Dynamics) and in this way the concentration of inhibitor which inhibits the telomerase activity by 50% (IC50) was determined.

T1 sequence (O14746 whole entry): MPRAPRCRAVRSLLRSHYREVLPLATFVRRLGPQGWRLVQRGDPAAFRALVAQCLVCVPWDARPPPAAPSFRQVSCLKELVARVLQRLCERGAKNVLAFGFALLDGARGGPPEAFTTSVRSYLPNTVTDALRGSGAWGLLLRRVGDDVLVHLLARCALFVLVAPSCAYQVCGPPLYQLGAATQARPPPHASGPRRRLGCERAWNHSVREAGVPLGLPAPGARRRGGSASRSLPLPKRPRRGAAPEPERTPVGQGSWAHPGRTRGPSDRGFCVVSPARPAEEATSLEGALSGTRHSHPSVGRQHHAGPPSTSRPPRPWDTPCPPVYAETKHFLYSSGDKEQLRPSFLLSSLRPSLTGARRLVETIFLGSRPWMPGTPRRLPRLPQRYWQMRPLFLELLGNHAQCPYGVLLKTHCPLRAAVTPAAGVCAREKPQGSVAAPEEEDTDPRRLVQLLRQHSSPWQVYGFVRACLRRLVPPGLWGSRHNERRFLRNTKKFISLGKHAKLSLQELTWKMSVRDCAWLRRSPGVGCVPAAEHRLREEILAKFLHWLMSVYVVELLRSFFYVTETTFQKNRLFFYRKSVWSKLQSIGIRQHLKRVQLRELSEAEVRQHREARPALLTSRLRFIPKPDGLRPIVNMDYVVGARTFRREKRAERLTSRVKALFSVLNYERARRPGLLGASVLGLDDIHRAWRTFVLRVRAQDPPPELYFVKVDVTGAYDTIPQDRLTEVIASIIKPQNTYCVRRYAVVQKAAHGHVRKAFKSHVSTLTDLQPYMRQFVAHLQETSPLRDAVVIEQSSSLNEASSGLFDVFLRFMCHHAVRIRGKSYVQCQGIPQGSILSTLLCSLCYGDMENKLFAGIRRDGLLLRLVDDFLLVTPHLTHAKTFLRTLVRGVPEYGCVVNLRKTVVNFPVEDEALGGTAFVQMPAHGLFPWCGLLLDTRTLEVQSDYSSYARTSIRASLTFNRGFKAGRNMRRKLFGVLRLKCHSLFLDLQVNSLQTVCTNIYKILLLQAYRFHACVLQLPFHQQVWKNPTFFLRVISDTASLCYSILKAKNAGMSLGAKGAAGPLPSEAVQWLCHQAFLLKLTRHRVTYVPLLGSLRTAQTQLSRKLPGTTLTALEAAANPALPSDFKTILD
T1 sequence (O60832 whole entry partner): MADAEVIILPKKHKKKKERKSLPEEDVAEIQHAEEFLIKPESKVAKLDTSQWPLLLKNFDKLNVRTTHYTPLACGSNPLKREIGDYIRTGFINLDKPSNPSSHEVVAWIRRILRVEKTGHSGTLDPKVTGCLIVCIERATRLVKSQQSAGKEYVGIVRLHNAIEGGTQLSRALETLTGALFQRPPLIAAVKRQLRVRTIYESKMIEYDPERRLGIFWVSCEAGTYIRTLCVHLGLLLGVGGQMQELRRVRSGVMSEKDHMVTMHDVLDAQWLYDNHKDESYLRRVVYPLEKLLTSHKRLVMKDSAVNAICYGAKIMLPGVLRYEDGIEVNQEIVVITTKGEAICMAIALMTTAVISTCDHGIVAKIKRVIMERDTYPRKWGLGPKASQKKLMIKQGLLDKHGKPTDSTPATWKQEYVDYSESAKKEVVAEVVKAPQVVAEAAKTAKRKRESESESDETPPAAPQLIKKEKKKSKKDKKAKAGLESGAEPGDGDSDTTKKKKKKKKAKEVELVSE
T1 sequence (Q9NPE3 whole entry partner): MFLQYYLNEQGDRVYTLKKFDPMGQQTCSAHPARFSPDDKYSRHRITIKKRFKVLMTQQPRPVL
T1 sequence (Q9NX24 whole entry partner): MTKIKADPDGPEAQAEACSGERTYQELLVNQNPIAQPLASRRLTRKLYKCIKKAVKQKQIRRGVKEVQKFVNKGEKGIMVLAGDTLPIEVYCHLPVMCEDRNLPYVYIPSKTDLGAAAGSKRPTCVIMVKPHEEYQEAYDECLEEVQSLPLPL
T1 sequence (Q9NY12 whole entry partner): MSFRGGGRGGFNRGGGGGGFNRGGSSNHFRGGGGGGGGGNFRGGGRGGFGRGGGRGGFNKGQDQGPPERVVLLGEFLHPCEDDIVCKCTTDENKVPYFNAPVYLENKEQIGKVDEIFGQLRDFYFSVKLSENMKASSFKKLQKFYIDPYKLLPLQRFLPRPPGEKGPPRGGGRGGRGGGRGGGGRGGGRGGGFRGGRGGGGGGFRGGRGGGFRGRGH
T1 sequence (Q9BUR4 whole entry partner): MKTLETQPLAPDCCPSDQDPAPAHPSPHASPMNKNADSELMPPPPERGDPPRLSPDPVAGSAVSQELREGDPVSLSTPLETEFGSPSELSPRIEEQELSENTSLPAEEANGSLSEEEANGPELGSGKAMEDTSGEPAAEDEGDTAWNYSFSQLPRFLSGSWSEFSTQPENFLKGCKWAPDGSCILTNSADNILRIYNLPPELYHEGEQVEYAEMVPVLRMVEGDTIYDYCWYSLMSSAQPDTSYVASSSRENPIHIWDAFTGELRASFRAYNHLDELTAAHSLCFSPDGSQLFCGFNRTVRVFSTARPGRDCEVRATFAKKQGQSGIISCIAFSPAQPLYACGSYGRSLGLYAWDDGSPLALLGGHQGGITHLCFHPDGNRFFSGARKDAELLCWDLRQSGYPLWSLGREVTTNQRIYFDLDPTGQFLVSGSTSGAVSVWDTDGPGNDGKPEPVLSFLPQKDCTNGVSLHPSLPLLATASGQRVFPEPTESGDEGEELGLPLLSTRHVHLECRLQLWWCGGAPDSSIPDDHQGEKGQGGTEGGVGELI

Row | SMILES | pIC50
1 | C/C(=C\C(=O)Nc1ccccc1C(=O)O)c1ccc2ccccc2c1 [Example 18, trans-3-(naphth-2-yl)-but-2-enoic acid-N-(2-carboxy-phenyl)-amide] | 7.40
2 | C/C(=C\C(=O)Nc1ccccc1C(=O)O)c1ccc(Cl)c(Cl)c1 [Example 10, trans-3-(3,4-dichlorophenyl)-but-2-enoic acid-N-(2-carboxy-phenyl)-amide] | 5.30
3 | COc1cc(NC(=O)/C=C(\C)c2ccc3ccccc3c2)c(C(=O)O)cc1OC [Example 28, trans-3-(naphth-2-yl)-but-2-enoic acid-N-(2-carboxy-4,5-dimethoxy-phenyl)-amide] | 7.46
4 | COc1cc(C(=O)O)c(NC(=O)/C=C(\C)c2ccc(Cl)c(Cl)c2)cc1C [Example 17, trans-3-(3,4-dichlorophenyl)-but-2-enoic acid-N-(2-carboxy-4-methoxy-5-methyl-phenyl)-amide] | 6.00

Next, values leading:

Row | pIC50 | SMILES
5 | 6.26 | C/C(=C\C(=O)Nc1cc(Cl)ccc1C(=O)O)c1ccc2ccccc2c1 [Example 29, trans-3-(naphth-2-yl)-but-2-enoic acid-N-(2-carboxy-5-chloro-phenyl)-amide]
6 | 7.00 | C/C(=C\C(=O)Nc1ccc(F)cc1C(=O)O)c1ccc2ccccc2c1 [Example 31, trans-3-(naphth-2-yl)-but-2-enoic acid-N-(2-carboxy-4-fluoro-phenyl)-amide]
